Laboratory results from paper PMC6066355, “Probing the binding site of novel selective positive allosteric modulators at the M1 muscarinic acetylcholine receptor” (Biochemical Pharmacology, 2018).
Changes are numbered by the printed parent chain. Like-named read-outs stand apart in the source and are kept apart here.

Experiments:
WT M1 mAChR [1] = target: T1, WT M1 mAChR (Homo sapiens, UniProt P11229); assay: Receptor alkylation assay: IP1 accumulation after PBZ pre-treatment, CHO-hM1 cells; type: cell-based; settings: for Effect on maximal ACh response (potency of ACh increased): 10 µM PBZ pre-treatment, ACh a partial agonist; for αβ (functional cooperativity with ACh, antilog in brackets) / Logαβ (logarithm of functional cooperativity between ACh and modulator): alkylated with PBZ (10 µM pre-treatment); for Logαβ (logarithm of functional cooperativity between ACh and modulator): β constrained to 1
T1 construct: expressed in transfected cells
T1 sequence (P11229 1-460): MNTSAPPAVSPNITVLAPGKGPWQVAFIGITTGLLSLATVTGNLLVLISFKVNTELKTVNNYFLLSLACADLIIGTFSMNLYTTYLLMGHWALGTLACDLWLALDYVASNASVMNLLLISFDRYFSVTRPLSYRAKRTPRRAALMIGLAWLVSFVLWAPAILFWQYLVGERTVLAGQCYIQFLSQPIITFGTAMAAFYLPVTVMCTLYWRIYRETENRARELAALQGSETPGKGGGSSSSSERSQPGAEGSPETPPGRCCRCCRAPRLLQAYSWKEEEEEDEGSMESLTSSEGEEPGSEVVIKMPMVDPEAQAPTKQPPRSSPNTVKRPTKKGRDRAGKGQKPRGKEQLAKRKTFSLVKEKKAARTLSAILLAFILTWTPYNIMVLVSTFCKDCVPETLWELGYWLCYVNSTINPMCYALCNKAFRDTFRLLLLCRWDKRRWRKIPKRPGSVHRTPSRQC
Protocol: The IP-One assay kit (Cisbio) was used for the direct quantitative measurement of myo-Inositol 1 phosphate (IP1). Cells were seeded at 25,000 per well into 96-well transparent cell culture plates and incubated overnight at 37 °C. […] Cells were then lysed with IP1 lysis buffer (50 mM HEPES pH 7.0, 15 mM KF, 1.5% V/V Triton-X-100, 3% V/V FBS, 0.2% W/V BSA), and IP1 levels were measured by incubation of cell lysates with FRET reagents (the cryptate-labeled anti-IP1 antibody and the d2-labeled IP1 analogue) for 1 h at 37 °C. […] Signals were expressed as the FRET ratio: F = (fluorescence665 nm/fluorescence590 nm) × 10^4, and normalized to the response to maximal ACh concentration (100 µM).
Cells were pre-treated with vehicle or the irreversible orthosteric alkylating agent, phenoxybenzamine (PBZ) for 30 min at 37 °C, 5% CO2 to reduce functional receptor availability, followed by three extensive washes with PBS. IP1 accumulation assays were then performed as described above.
Functional interaction studies between orthosteric agonists and allosteric modulators in IP1 assays were analysed using the following operational model of allosterism and agonism (Eq. (3)):(3) E=Basal+Em-BasalAKB+αβB+τBBEC50/EC50KB+B+AKB+αβB+τBBEC50 where Em is the maximal possible system response, and Basal is the response in the absence of agonist. KB is the equilibrium dissociation constant of allosteric ligand, and EC50 is the concentration of orthosteric agonist required to achieve half maximal response. [A] and [B] denote concentrations of orthosteric and allosteric ligands, respectively. α and β denote allosteric effects on orthosteric ligand binding affinity and efficacy, respectively, and τB denotes the efficacy of allosteric ligand. This model assumes that ACh is a full agonist at the receptor in both the absence/presence of modulator and/or there is no efficacy modulation (i.e., β = 1).

WT M1 mAChR [2] = target: T1, WT M1 mAChR; assay: Whole cell [3H]NMS binding inhibition/interaction assay (ACh ± PAM), FlpIn CHO cells; settings: for Logα NMS (logarithm of binding cooperativity between [3H]NMS and modulator): constrained to −2 where preferred model by F-test
Protocol: (§1) Saturation binding assays were performed to estimate the expression levels and equilibrium dissociation constant of the radioligand (KD). FlpIn CHO cells stably expressing the WT or mutant c-myc hM1 mAChRs were plated at the density of 25,000 per well of 96-well white clear bottom Isoplates (PerkinElmer Life Sciences, Boston, MA), and grown overnight at 37 °C. […] Atropine at the final concentration of 100 µM was used to determine non-specific binding. The assays were terminated by rapid removal of the radioligand, and two washes with 100 µl/well ice-cold 0.9% NaCl buffer.
(§2) All data were analysed using GraphPad Prism 7 (San Diego, CA). […] Binding interaction studies between orthosteric agonists and allosteric modulators were fitted to the following allosteric ternary complex model (Eq. (1)):(1) Y=BmaxD/D+KDKB/α^′B+KB1+I/KI+B/KB+αIB/KIKB where Bmax is the total number of receptors, [D], [B] and [I] denote the concentrations of radioligand, allosteric ligand, and orthosteric ligand, respectively, and KD, KB and KI represent their respective equilibrium dissociation constants. α′ and α are the cooperativity factors between the allosteric ligand and radioligand or orthosteric ligand, respectively.

F77^2.56I M1 mAChR = target: T2, F77^2.56I M1 mAChR (Homo sapiens, UniProt P11229, F77I); assay: as above; settings: for Logα NMS (logarithm of binding cooperativity between [3H]NMS and modulator): constrained to −2 where preferred model by F-test
T2 construct: expressed in transfected cells
T2 sequence (P11229 1-460 F77I): T1 sequence (P11229 1-460) with F77I
Protocol: as §1, §2

Y82^2.61A M1 mAChR = target: T3, Y82^2.61A M1 mAChR (Homo sapiens, UniProt P11229, Y82A); assay: as above
T3 construct: expressed in transfected cells
T3 sequence (P11229 1-460 Y82A): T1 sequence (P11229 1-460) with Y82A
Protocol: as §1, §2

αβ (functional cooperativity with ACh, antilog in brackets) (WT M1 mAChR [1]) | Logαβ (logarithm of functional cooperativity between ACh and modulator) (WT M1 mAChR [1]) | Logα ACh (logarithm of binding cooperativity between ACh and modulator) (WT M1 mAChR [2]; WT) | Kb (WT M1 mAChR [2]; WT, allosteric ternary complex model, 0.3 nM [3H]NMS, read-out: pKB (negative logarithm of the allosteric modulator equilibrium dissociation constant) (converted)) | Logα NMS (logarithm of binding cooperativity between [3H]NMS and modulator) (WT M1 mAChR [2]; WT) | Logα ACh (logarithm of binding cooperativity between ACh and modulator) (F77^2.56I M1 mAChR; F77^2.56I) | α ACh (binding cooperativity with ACh, antilog in brackets) (F77^2.56I M1 mAChR; F77^2.56I) | α NMS (binding cooperativity with [3H]NMS, antilog in brackets) (F77^2.56I M1 mAChR; F77^2.56I) | Kb (F77^2.56I M1 mAChR; F77^2.56I, allosteric ternary complex model, 0.3 nM [3H]NMS, read-out: pKB (negative logarithm of the allosteric modulator equilibrium dissociation constant) (converted)) | Logα NMS (logarithm of binding cooperativity between [3H]NMS and modulator) (F77^2.56I M1 mAChR; F77^2.56I) | Logα ACh (logarithm of binding cooperativity between ACh and modulator) (Y82^2.61A M1 mAChR; Y82^2.61A) | Logα NMS (logarithm of binding cooperativity between [3H]NMS and modulator) (Y82^2.61A M1 mAChR; Y82^2.61A) | α ACh (binding cooperativity with ACh, antilog in brackets) (Y82^2.61A M1 mAChR; Y82^2.61A) | α NMS (binding cooperativity with [3H]NMS, antilog in brackets) (Y82^2.61A M1 mAChR; Y82^2.61A) | Kb (Y82^2.61A M1 mAChR; Y82^2.61A, allosteric ternary complex model, 0.6 nM [3H]NMS, read-out: pKB (negative logarithm of the allosteric modulator equilibrium dissociation constant) (converted)) | Compound | Effect on maximal ACh response (potency of ACh increased) (WT M1 mAChR [1]) | Kb (WT M1 mAChR [2]) | Kb (F77^2.56I M1 mAChR) | Kb (Y82^2.61A M1 mAChR) | α ACh (binding cooperativity with ACh, antilog in brackets) (WT M1 mAChR [2]; WT)
144 | 2.16 ± 0.11 | 1.40 ± 0.08 | 309 nM | −1.05 ± 0.06 | 1.83 ± 0.14 | 44.7 | 0.06 | 417 nM | −1.02 ± 0.12 | 1.53 ± 0.11 | −0.16 ± 0.02 | 30.9 | 0.62 | 2450 nM | Cc1cnc(C(=O)N[C@H]2CCOC[C@@H]2O)cc1Cc1ccc(-c2cscn2)cc1 [PF-06767832, N-((3R,4S)-3-hydroxytetrahydro-2H-pyran-4-yl)-5-methyl-4-(4-(thiazol-4-yl)benzyl)pyridine-2-carboxamide] | no effect on the maximal agonist response | – | – | – | –
117 | 2.07 ± 0.13 | 1.60 ± 0.08 | – | = −2 | 1.60 ± 0.09 | 25.7 | – | – | = −2 | 1.66 ± 0.19 | −0.16 ± 0.06 | 45.7 | 0.69 | – | Cn1cc(-c2ccc(COc3ccccc3-c3cc(=O)n(C4CCCCC4O)cn3)cc2)cn1 (stereo not drawn) [MIPS1780, 3-(2-hydroxycyclohexyl)-6-(2-((4-(1-methyl-1H-pyrazol-4-yl)-benzyl)oxy)phenyl)pyrimidin-4(3H)-one] | no effect on the maximal agonist response | 661 nM | 661 nM | 10000 nM | –

Compound | αβ (functional cooperativity with ACh, antilog in brackets) (WT M1 mAChR [1]) | Logαβ (logarithm of functional cooperativity between ACh and modulator) (WT M1 mAChR [1]) | Logα ACh (logarithm of binding cooperativity between ACh and modulator) (WT M1 mAChR [2]; WT) | Kb (WT M1 mAChR [2]; WT, allosteric ternary complex model, 0.3 nM [3H]NMS, read-out: pKB (negative logarithm of the allosteric modulator equilibrium dissociation constant) (converted)) | Logα NMS (logarithm of binding cooperativity between [3H]NMS and modulator) (WT M1 mAChR [2]; WT) | Logα ACh (logarithm of binding cooperativity between ACh and modulator) (F77^2.56I M1 mAChR; F77^2.56I) | α ACh (binding cooperativity with ACh, antilog in brackets) (F77^2.56I M1 mAChR; F77^2.56I) | α NMS (binding cooperativity with [3H]NMS, antilog in brackets) (F77^2.56I M1 mAChR; F77^2.56I) | Kb (F77^2.56I M1 mAChR; F77^2.56I, allosteric ternary complex model, 0.3 nM [3H]NMS, read-out: pKB (negative logarithm of the allosteric modulator equilibrium dissociation constant) (converted)) | Logα NMS (logarithm of binding cooperativity between [3H]NMS and modulator) (F77^2.56I M1 mAChR; F77^2.56I) | Logα ACh (logarithm of binding cooperativity between ACh and modulator) (Y82^2.61A M1 mAChR; Y82^2.61A) | Logα NMS (logarithm of binding cooperativity between [3H]NMS and modulator) (Y82^2.61A M1 mAChR; Y82^2.61A) | α ACh (binding cooperativity with ACh, antilog in brackets) (Y82^2.61A M1 mAChR; Y82^2.61A) | α NMS (binding cooperativity with [3H]NMS, antilog in brackets) (Y82^2.61A M1 mAChR; Y82^2.61A) | Kb (Y82^2.61A M1 mAChR; Y82^2.61A, allosteric ternary complex model, 0.6 nM [3H]NMS, read-out: pKB (negative logarithm of the allosteric modulator equilibrium dissociation constant) (converted)) | Effect on maximal ACh response (potency of ACh increased) (WT M1 mAChR [1]) | Kb (WT M1 mAChR [2]) | Kb (F77^2.56I M1 mAChR) | Kb (Y82^2.61A M1 mAChR) | α ACh (binding cooperativity with ACh, antilog in brackets) (WT M1 mAChR [2]; WT)
Cn1cc(-c2ccc(Cn3cc(C(=O)N[C@H]4CCCC[C@@H]4O)c4c(F)cc(F)cc43)cn2)cn1 [VU6004256, 4,6-difluoro-N-(1S,2S)-2-hydroxycyclohexyl-1-((6-(1-methyl-1H-pyrazol-4-yl)pyridine-3-yl)methyl)-1H-indole-3-carboxamide] | 91 | 1.96 ± 0.22 | 1.40 ± 0.09 | – | = −2 | – | – | – | – | = −2 | 1.08 ± 0.13 | −0.09 ± 0.03 | 11.2 | 0.76 | – | no effect on the maximal agonist response | 479 nM | 417 nM | 2240 nM | 15.5
